According to PMC7845634 (mBio, 2021):
Like-named read-outs stand apart in the source and are kept apart here.

Legend:
Assay type in all cases: cell-based
SARS-CoV-2 replicon = experiment: microbe, parasite or virus in culture; settings: for IC50: Severe acute respiratory syndrome coronavirus 2, HEK-293T, read-out: IC50 upon replicon RNA synthesis (luciferase activity); for Result of compound library screening on replicon: Approved Drug Screening Library, final concentration 20 μM, 24 h treatment
authentic SARS-CoV-2 = experiment: Authentic SARS-CoV-2 infection assay, viral RNA copies by RT-qPCR; settings: Severe acute respiratory syndrome coronavirus 2, HEK-293T, 24 h, read-out: IC50 on authentic viruses (viral RNA copies)
IRES-CMV-luciferase = IRES-CMV-luciferase plasmid counter-assay in 293T cells
[1] = tested on: GFP signal of ps2V plasmid
[2] = Homo sapiens, HEK-293T, read-out: IC50 on IRES-CMV-luciferase activity, 293T cells, drug added 24 to 30 h after transfection, 24 h treatment
[3] = 293T cells, drug added 24 to 30 h after transfection, 24 h treatment

Compound	IC50 (SARS-CoV-2 replicon)	IC50 (authentic SARS-CoV-2)	IC50 (IRES-CMV-luciferase; [2])	IC50 on IRES-CMV-luciferase activity (IRES-CMV-luciferase; [3])	Result of compound library screening on replicon (SARS-CoV-2 replicon)	Effect on GFP signal [1]	IC50 (IRES-CMV-luciferase; 293T cells, drug added 24 to 30 h after transfection, 24 h treatment, read-out: IC50 on IRES-CMV-luciferase activity)
COc1cccc2c1C(=O)c1c(O)c3c(c(O)c1C2=O)C[C@@](O)(C(=O)CO)C[C@@H]3O[C@H]1C[C@H](N)[C@H](O)[C@H](C)O1 [Adriamycin]	0.824 ± 0.114 µM	0.612 ± 0.228 µM	17.8 µM				
CCc1cc2c(cc1N1CCC(N3CCOCC3)CC1)C(C)(C)c1[nH]c3cc(C#N)ccc3c1C2=O [alectinib]	0.564 ± 0.0175 µM	0.14 ± 0.0913 µM		no statistical significance			
C[C@H]1O[C@@H](O[C@H]2[C@@H](O)C[C@H](O[C@H]3[C@@H](O)C[C@H](O[C@H]4CC[C@@]5(C)[C@H](CC[C@@H]6[C@@H]5CC[C@]5(C)[C@@H](C7=CC(=O)OC7)CC[C@]65O)C4)O[C@@H]3C)O[C@@H]2C)C[C@H](O)[C@@H]1O [digitoxin]					hit		
CCN(CC)C(=S)SSC(=S)N(CC)CC [disulfiram]	9.32 ± 1.65 µM					little effect on GFP signal	
CC[C@H]1CN2CCc3cc(OC)c(OC)cc3[C@@H]2C[C@@H]1C[C@H]1NCCc2cc(OC)c(OC)cc21 [emetine]	0.273 ± 0.0093 µM	0.155 ± 0.068 µM			hit	little effect on GFP signal	
Cc1cccc(C)c1OCC(=O)N[C@@H](Cc1ccccc1)[C@@H](O)C[C@H](Cc1ccccc1)NC(=O)[C@H](C(C)C)N1CCCNC1=O [lopinavir]	6.79 ± 1.09 µM					little effect on GFP signal	
Cc1ccc(NC(=O)c2ccc(CN3CCN(C)CC3)cc2)cc1Nc1nc(-c2cccnc2)cs1 [masitinib]	0.652 ± 0.0661 µM	0.597 ± 0.341 µM	8.64 µM				
O=C1c2c(O)ccc(O)c2C(=O)c2c(NCCNCCO)ccc(NCCNCCO)c21 [mitoxantrone]	0.338 ± 0.235 µM	0.133 ± 0.0901 µM	27.8 µM				26.8 ± 1.2 µM
C[C@@H]1O[C@@H](O[C@H]2C[C@@H](O)[C@]3(CO)[C@H]4[C@H](O)C[C@]5(C)[C@@H](C6=CC(=O)OC6)CC[C@]5(O)[C@@H]4CC[C@]3(O)C2)[C@H](O)[C@H](O)[C@H]1O [ouabain]					hit		
CCC(CC)COC(=O)[C@H](C)N[P@](=O)(OC[C@H]1O[C@@](C#N)(c2ccc3c(N)ncnn23)[C@H](O)[C@@H]1O)Oc1ccccc1 [remdesivir]	12.4 ± 1.08 µM					little effect on GFP signal	
CC(C)c1nc(CN(C)C(=O)N[C@H](C(=O)N[C@@H](Cc2ccccc2)C[C@H](O)[C@H](Cc2ccccc2)NC(=O)OCc2cncs2)C(C)C)cs1 [ritonavir]	14.8 ± 1.05 µM					little effect on GFP signal	
C=CC(=O)Nc1cccc(Nc2nc(Nc3ccc(N4CCN(C(C)=O)CC4)cc3OC)ncc2C(F)(F)F)c1 [rociletinib]	7.32 ± 1.21 µM	11.2 ± 1.89 µM		no statistical significance			
